Reference: patent publication US20240299424A1, “USE OF PHYTOCANNABINOIDS FOR TREATING ENDOMETRIAL CANCER AND ENDOMETRIOSIS” (INTEGRATIVE THERAPY DISCOVERY LAB S.R.L., priority 2021, published 2024)

How the values were obtained:
Ishikawa cells = assay: MTT cell viability assay, Ishikawa type I endometrial cancer cell line; format: cell-based, human; conditions: 72 hours; for cytotoxicity (cell viability, % vs vehicle) in combination: in double with cannabidiol (10, 15 and 20 microM CBD), FIG. 3-4; for cytotoxicity (cell viability, % vs vehicle): phytocannabinoid alone, FIG. 1; for cytotoxicity (cell viability, % vs vehicle) in combination with chemotherapeutic drugs: with paclitaxel (PAC), doxorubicin (DOX) and cisplatin (CIS), FIG. 7-10
Method: (§1) Ishikawa is a well differentiated type I cell line, was purchased from Sigma Aldrich (Milan, Italy). Ishikawa cells were grown in EMEM medium (Lonza, Milan, Italy), supplemented with 5% fetal bovine serum (FBS), 2 mM/L of glutamine, 100 IU/ml of penicillin, and […] of streptomycin. Primary EC cells PCEM004A, poorly differentiated mixed type I/II cell line, was grown in RPMI1640, supplemented with 20% FBS, 2 mM/L of glutamine, 100 IU/ml of penicillin, and […] of streptomycin. Immortalized human endometriotic cell line (12Z) was generated by infecting cells, obtained from a person undergoing laparoscopy, with SV40 virus. This cell line was purchased by Applied Biological Materials Inc and was maintained in Prigrow III medium supplemented with 20% no-heat inactivated FBS, 100 IU/ml of penicillin and […] of streptomycin. Human pancreatic ductal adenocarcinoma PANC-1 cell line was purchased by Sigma Aldrich (Milan, Italy) and cultured in DMEM high glucose medium (EuroClone, Milan, Italy) supplemented with 10% FBS, 2 mM L-glutamine, 100 IU/mL penicillin, […] streptomycin and 1 mM sodium pyruvate. The human glioblastoma U251 cell line (grade IV), obtained from European Collection of Cell Cultures (ECACC, Salisbury, UK), was maintained in EMEM supplemented with 10% FBS, 2 mmol/L L-glutamine, 100 IU/mL penicillin and 100 μg streptomicin. Media were changed every 48 hours until cells were 90% confluent. All cell lines were maintained at 37 C with 5% CO2 and 95% humidity.
(§2) EC cell lines, PANC-1, U251, and 12Z (3×10^4 cells/ml) were plated in 96-well plates, in a final volume of 100 microl/well. After 24 hours, treatments or vehicles were added for 72 hours. At least six replicates were used for each treatment. At the indicated time point, cell viability was assessed by adding 0.8 mg/ml of 3-[4,5-dimethylthiazol-2-yl]-2,5 diphenyl tetrazolium bromide (MTT, Sigma-Aldrich) to the media. After 3 hours, the plates were centrifuged, the supernatant was removed, and the pellet was solubilized with 100 microl/well of DMSO. The absorbance of the samples against a background control (medium alone) was measured at 570 nm using an ELISA reader microliter plate (BioTek Instruments, Winooski, VT, United States). IC50 was calculated by PRISM 5.0a software, for single phytocannabinoids.

PCEM004A cells = assay: MTT cell viability assay, primary mixed type PCEM004A endometrial cancer cell line; format: cell-based, human; conditions: 72 hours; for cytotoxicity (cell viability, % vs vehicle): phytocannabinoid alone, FIG. 5; for cytotoxicity (cell viability, % vs vehicle) in combination with chemotherapeutic drugs: with paclitaxel (PAC), doxorubicin (DOX) and cisplatin (CIS), FIG. 7-10
Method: as §1, §2

PANC-1 cells = assay: MTT cell viability assay, PANC-1 pancreatic ductal adenocarcinoma cell line; format: cell-based, human; conditions: PANC-1, 72 hours post-treatment, FIG. 11
Method: as §1, §2

U251 cells = assay: MTT cell viability assay, U251 glioblastoma cell line; format: cell-based, human; conditions: U251, 72 hours post-treatment, FIG. 13
Method: as §1, §2

[1] = test system: 12Z endometriotic cell line; assay: MTT cell viability assay, 12Z endometriotic cell line; format: cell-based, human; conditions: single administration, 72 hours post-treatment, FIG. 15-20
Method: as §1, §2

[2] = test system: 12Z endometriotic cell line; assay: Transwell invasion assay, 12Z endometriotic cells; format: cell-based, human; conditions: non-cytotoxic dose, 24 hours, Transwell/Matrigel, major effect order THC>CBG>CBD>CBDV>CBN>CBC, FIG. 22-30
Method: as §1
12Z cell invasion was evaluated by Transwell invasion assay using Transwell chambers (BD Biosciences, Franklin Lakes, NJ, USA) characterized by the upper face of the polycarbonate membrane covered with 1 mg/ml Matrigel. A total of 750 μl cell culture medium supplemented with 10% FBS was added in the lower chamber. Serum free culture medium ([…]) containing 2.5×10^4 12Z endometriotic cells was plated into the upper chamber with the appropriate treatment. After 24 hours of incubation, the cells remaining in the upper chamber were removed by cotton swabs. The cells on the lower and inner surface of the membrane were fixed in cold methanol, stained with hoechst and observed using a fluorescence microscope (BX51 fluorescence microscope, Olympus, Milan, Italy). A total of ten fields at ×10 magnification were selected at random to measure the average cell coverage using ImageJ software version 1.45s (National Institutes of Health, Bethesda, MD, USA). The experiments were performed in triplicate at least three times independently.

IL-6 = assay: RT/PCR TaqMan array, IL-6 gene expression in 12Z cells; format: cell-based, human; conditions: 48 hours, CBG, CBC, CBN 30 microM, CBD, CBDV 10 microM, THC 40 microM
Method: (§3) Total RNA from untreated or single treated 12Z cell line with CBD, CBG, CBC, CBN, CBDV and THC was extracted using Rneasy Mini kit (Qiagen, Milan, Italy). One microgram of total RNA from each sample was subjected to reverse transcription in a total volume of 20 μL using the High-Capacity cDNA Archive Kit (Applied Biosystem, Foster City, PA, USA) according to the instructions. cDNAs were analyzed by qRT-PCR performed using an IQ5 Multicolor Real time PCR Detection system. Quantitative real-time gene expression was performed with the TaqMan® Array Plate, containing 15 associated cytokine genes and beta-actin as endogenous control gene, was purchased (Thermo Fisher, Grand Island, NY, USA) and used to evaluate the treatments in modulating 12Z-related genes. Measurement of housekeeping gene (beta-Actin) on the samples was used to normalize mRNA content. The gene expression levels of treated cell lines were expressed as normalized fold compared with vehicle-treated cells.

[3] = test system: endometrial cancer cell lines; assay: MTT cell viability, endometrial cancer cell lines tested (Ishikawa and PCEM004A, stated jointly); format: cell-based, human; conditions: for dose dependence of effect on cell viability: individual phytocannabinoids
Method: as §1, §2

CXCL8 = assay: RT/PCR TaqMan array, CXCL8 gene expression in 12Z cells; format: cell-based, human; conditions: 48 hours, CBG, CBC, CBN 30 microM, CBD, CBDV 10 microM, THC 40 microM
Method: as §3

IL-33 = assay: RT/PCR TaqMan array, IL-33 gene expression in 12Z cells; format: cell-based, human; conditions: 48 hours, CBG, CBC, CBN 30 microM, CBD, CBDV 10 microM, THC 40 microM
Method: as §3

IL-1beta = assay: RT/PCR TaqMan array, IL-1beta gene expression in 12Z cells; format: cell-based, human; conditions: 48 hours, CBG, CBC, CBN 30 microM, CBD, CBDV 10 microM, THC 40 microM
Method: as §3

STAT-3 = assay: RT/PCR TaqMan array, STAT-3 gene expression in 12Z cells; format: cell-based, human; conditions: 48 hours, CBG, CBC, CBN 30 microM, CBD, CBDV 10 microM, THC 40 microM
Method: as §3

[4] = test system: type I cells and mixed type endometrial cancer cell lines; conditions: cited from earlier work

Row | Structure (SMILES) | cytotoxicity (cell viability, % vs vehicle) in combination (Ishikawa cells) | cytotoxicity (cell viability, % vs vehicle) (Ishikawa cells) | cytotoxicity (cell viability, % vs vehicle) in combination with chemotherapeutic drugs (Ishikawa cells) | cytotoxicity (cell viability, % vs vehicle) (PCEM004A cells) | cytotoxicity (cell viability, % vs vehicle) in combination with chemotherapeutic drugs (PCEM004A cells) | cytotoxicity (cell viability, % vs vehicle) (PANC-1 cells) | cytotoxicity (cell viability, % vs vehicle) (U251 cells) | cytotoxicity (cell viability, % vs vehicle) [1] | endometriosis cell invasion [2] | IL-6 gene expression (normalized versus vehicle) (IL-6) | dose dependence of effect on cell viability ([3]; endometrial cancer cell lines) | CXCL8 gene expression (normalized versus vehicle) (CXCL8) | efficacy in reducing cell viability (rank among individual phytocannabinoids) ([3]; endometrial cancer cell lines, order: CBN, followed by CBDV, CBG, THC and CBC) | efficacy of phytocannabinoid combinations in reducing cell viability ([3]; endometrial cancer cells, combinations of phytocannabinoids) | IL-33 gene expression (normalized versus vehicle) (IL-33) | IL-1beta gene expression (normalized versus vehicle) (IL-1beta) | STAT-3 gene expression (normalized versus vehicle) (STAT-3) | chemotherapeutic drugs cytotoxicity ([4]; endometrial cancer cell lines) | cell viability ([4]; type I cells (cell death) and mixed type endometrial cancer cell lines (autophagy))
1 | CCCCCc1cc(O)c2c(c1)OC(C)(C)[C@@H]1CCC(C)=C[C@@H]21 [THC, (6aR,10aR)-6,6,9-trimethyl-3-pentyl-6a,7,8,10a-tetrahydrobenzo[c]chromen-1-ol, reference compound] | induced cytotoxicity | induced cytotoxicity | induced cytotoxicity | induced cytotoxicity | induced cytotoxicity | induced cytotoxicity | induced cytotoxicity | induced cytotoxicity | effective in reducing endometriosis cells invasion | reduced | dose dependent effect |  |  |  |  |  |  |  | 
2 | CCCCCc1cc(O)c2c(c1)OC(C)(C)c1ccc(C)cc1-2 [CBN, 6,6,9-trimethyl-3-pentylbenzo[c]chromen-1-ol] | induced cytotoxicity | induced cytotoxicity | induced cytotoxicity | induced cytotoxicity | induced cytotoxicity | induced cytotoxicity | induced cytotoxicity | induced cytotoxicity | effective in reducing endometriosis cells invasion |  |  | reduced | highest | amplified the effect of all cannabinoids |  |  |  |  | 
3 | C=C(C)[C@@H]1CCC(C)=C[C@H]1c1c(O)cc(CCCCC)cc1O [CBD, 2-[(1R,6R)-3-methyl-6-prop-1-en-2-ylcyclohex-2-en-1-yl]-5-pentylbenzene-1,3-diol, reference compound] |  |  |  |  |  |  |  | induced cytotoxicity | effective in reducing endometriosis cells invasion | reduced | dose dependent effect | reduced |  |  | reduced | reduced | reduced | improves chemotherapeutic drugs cytotoxicity | reduces cell viability
4 | CCCCCc1cc(O)c(C/C=C(\C)CCC=C(C)C)c(O)c1 [CBG, 2-[(2E)-3,7-dimethylocta-2,6-dienyl]-5-pentylbenzene-1,3-diol] | induced cytotoxicity | induced cytotoxicity | induced cytotoxicity | induced cytotoxicity | induced cytotoxicity | induced cytotoxicity | induced cytotoxicity | induced cytotoxicity | effective in reducing endometriosis cells invasion |  | dose dependent effect | reduced |  |  | reduced | reduced |  |  | 
5 | C=C(C)[C@@H]1CCC(C)=C[C@H]1c1c(O)cc(CCC)cc1O [CBDV, 2-[(1R,6R)-3-methyl-6-prop-1-en-2-ylcyclohex-2-en-1-yl]-5-propylbenzene-1,3-diol] | induced cytotoxicity | induced cytotoxicity | induced cytotoxicity | induced cytotoxicity | induced cytotoxicity | induced cytotoxicity | induced cytotoxicity | induced cytotoxicity | effective in reducing endometriosis cells invasion | reduced | dose dependent effect | reduced |  |  | reduced |  |  |  | 
6 | CCCCCc1cc(O)c2c(c1)OC(C)(CCC=C(C)C)C=C2 (stereo not drawn) [CBC, 2-methyl-2-(4-methylpent-3-enyl)-7-pentylchromen-5-ol] | induced cytotoxicity | induced cytotoxicity | induced cytotoxicity | induced cytotoxicity | induced cytotoxicity | induced cytotoxicity | induced cytotoxicity | induced cytotoxicity | effective in reducing endometriosis cells invasion |  | dose dependent effect |  |  |  |  |  |  |  | 
